# In article PMC11249239 (PLOS ONE, 2024):
# Tested on: MCF10A normal breast epithelial cells
# Test: Cell growth inhibition (CCK8 cytotoxicity assay), MCF10A
# Assay type: cell-based
# Settings: Homo sapiens, MCF-10A, 48 h treatment, read-out: Average EC50 ± SD, cell growth inhibition
structure (smiles),measurement,value
"O=C(CCCCCCC(=O)Nc1ccccc1)NO [SAHA, reference compound]",EC50,10.1 ± 0.982 µM
